Experimental findings from paper PMC6981637, “Tetrahydroquinoline-Isoxazole/Isoxazoline Hybrid Compounds as Potential Cholinesterases Inhibitors: Synthesis, Enzyme Inhibition Assays, and Molecular Modeling Studies” (International Journal of Molecular Sciences, 2019) are described below.

The structures appear in SMILES notation. Where “and” joins values, the source holds several entries; their conditions need not be identical. Identical values can stand only once. Like-named read-outs stand apart in the source and are kept apart here. A value given as a limit tells only on which side of the number the result lay.

One assay deals with T1, BChE (from bovine serum) (Bos taurus, UniProt P32749).
T1 construct: purchased Sigma-Aldrich
T1 sequence (P32749 29-602): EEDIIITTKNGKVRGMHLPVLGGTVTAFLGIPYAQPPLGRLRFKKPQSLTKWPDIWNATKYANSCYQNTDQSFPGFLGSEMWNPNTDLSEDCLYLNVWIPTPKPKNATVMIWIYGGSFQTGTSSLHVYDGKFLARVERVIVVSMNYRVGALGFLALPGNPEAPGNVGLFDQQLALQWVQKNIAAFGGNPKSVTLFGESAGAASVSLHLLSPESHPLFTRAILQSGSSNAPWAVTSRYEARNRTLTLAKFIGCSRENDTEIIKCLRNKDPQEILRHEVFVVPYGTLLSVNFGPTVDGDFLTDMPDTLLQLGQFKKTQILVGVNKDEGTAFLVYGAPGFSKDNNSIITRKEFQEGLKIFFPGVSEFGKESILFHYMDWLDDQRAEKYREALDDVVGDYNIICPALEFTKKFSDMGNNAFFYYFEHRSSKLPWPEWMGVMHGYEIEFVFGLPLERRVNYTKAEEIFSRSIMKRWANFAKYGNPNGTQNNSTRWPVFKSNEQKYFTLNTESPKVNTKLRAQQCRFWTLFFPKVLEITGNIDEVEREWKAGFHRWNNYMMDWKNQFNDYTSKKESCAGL
As to the kind of experiment: BChE inhibitory activity (Ellman method). Type of assay: biochemical. Conditions: for IC50: average from three independent experiments ± SEM; for selectivity against BChE: conclusions.

In assay [1] the target is AChE (from Electrophorus electricus) (Electrophorus electricus, UniProt O42275).
Chain of AChE (from Electrophorus electricus) (O42275 24-633): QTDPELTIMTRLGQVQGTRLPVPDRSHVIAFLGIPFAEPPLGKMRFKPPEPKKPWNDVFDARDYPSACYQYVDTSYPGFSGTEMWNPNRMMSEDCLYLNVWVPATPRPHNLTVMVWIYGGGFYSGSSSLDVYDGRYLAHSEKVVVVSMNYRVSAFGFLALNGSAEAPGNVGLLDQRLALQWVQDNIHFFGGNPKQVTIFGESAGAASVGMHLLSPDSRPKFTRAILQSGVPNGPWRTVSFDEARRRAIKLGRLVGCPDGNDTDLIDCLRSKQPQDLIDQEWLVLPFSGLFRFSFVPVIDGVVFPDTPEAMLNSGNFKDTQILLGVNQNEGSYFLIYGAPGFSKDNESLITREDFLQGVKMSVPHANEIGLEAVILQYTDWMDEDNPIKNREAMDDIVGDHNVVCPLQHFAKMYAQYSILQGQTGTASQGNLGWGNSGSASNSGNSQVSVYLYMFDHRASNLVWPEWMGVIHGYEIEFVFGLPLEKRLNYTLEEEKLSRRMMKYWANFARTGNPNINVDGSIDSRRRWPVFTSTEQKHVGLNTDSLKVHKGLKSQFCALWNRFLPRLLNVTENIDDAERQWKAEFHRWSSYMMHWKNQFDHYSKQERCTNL
Setting [2] is: Table 2, THQ–isoxazole hybrids 6, read-out: BChE (IC50).
[3] abbreviates: Table 1, THQ–isoxazoline hybrids 5, read-out: IC50 BChE.

Usually IC50 stands for the concentration needed to halve the response being measured. Consider `COc1ccc(-c2cc(CN3CCC(N4CCCC4=O)c4cc(Cl)cc(Cl)c43)on2)cc1OC` (centres unmarked) [6o, 5-((6′,8′-dichloro-4′-(2′’-oxopyrrolidin-1′’-yl)-3′,4′-dihydroquinolin-1′(2′H)-yl)methyl)-3-(3,4-dimethoxyphenyl)isoxazole], for which the IC50 at BChE (from bovine serum) (setting [2]) stood at 313.82 ± 0.01 µM; in assay [1] (read-out: AChE (IC50)) it was 80.89 ± 0.04 µM. The compound further displayed an SI in assay [1] of 3.88.
The corresponding values for `COc1ccc(-c2cc(CN3CCC(N4CCCC4=O)c4cc(C)ccc43)on2)cc1` (centres unmarked) [6e, 3-(4-methoxyphenyl)-5-((6′-methyl-4′-(2′’-oxopyrrolidin-1′’-yl)-3′,4′-dihydroquinolin-1′(2′H)-yl)methyl)isoxazole] are 79.81 ± 0.06 µM, 30.43 ± 0.02 µM and 2.62.
As for `COc1cc(C2=NOC(CN3CCC(N4CCCC4=O)c4ccccc43)C2)cc(OC)c1OC` (centres unmarked) [5d, 3-(3,4,5-trimethoxyphenyl)-5-[4-((2′-oxopyrrolidin-1′-yl)-3,4-dihydroquinolin-1(2H)-yl)-methyl]-4,5-dihydroisoxazole], the IC50 worked out at 13.66 ± 0.01 µM on BChE (from bovine serum) (setting [3]) and 49.82 ± 0.03 µM in assay [1] (read-out: IC50 AChE). The compound further yielded an SI in assay [1] of 0.27.
For the compound `COc1ccc2c(c1)C(N1CCCC1=O)CCN2Cc1cc(-c2ccccc2)no1` (centres unmarked) [6h, 5-((6′-methoxy-4′-(2′’-oxopyrrolidin-1′’-yl)-3′,4′-dihydroquinolin-1′(2′H)-yl)methyl)-3-phenylisoxazole], the IC50 is < 7.18 µM and 4.33 µM at BChE (from bovine serum) (setting [2]); 52.76 ± 0.01 µM in assay [1] (read-out: AChE (IC50)). Also, the “selectivity against BChE” value on BChE (from bovine serum) is “more selective”. The SI in assay [1] was 0.08.
`CCc1cc(Cl)c2c(c1)C(N1CCCC1=O)CCN2Cc1cc(-c2ccc(OC)c(OC)c2)no1` (centres unmarked) [6s, 5-((8′-chloro-6′-ethyl-4′-(2′’-oxopyrrolidin-1′’-yl)-3′,4′-dihydroquinolin-1′(2′H)-yl)methyl)-3-(3,4-dimethoxyphenyl)isoxazole]: the IC50 is 22.28 ± 0.004 µM on BChE (from bovine serum) (setting [2]) and 26.82 ± 0.002 µM in assay [1] (read-out: AChE (IC50)). This compound showed an SI in assay [1] of 0.83.
The corresponding values for `O=C1CCCN1C1CCN(Cc2cc(-c3ccccc3)no2)c2ccc(Br)cc21` (centres unmarked) [6y, 5-((6′-bromo-4′-(2′’-oxopyrrolidin-1′’-yl)-3′,4′-dihydroquinolin-1′(2′H)-yl)methyl)-3-phenylisoxazole] are 84.91 ± 0.01 µM, 97.84 ± 0.01 µM and 0.87.
Take `O=C1CCCN1C1CCN(CC2CC(c3ccccc3)=NO2)c2ccccc21` (centres unmarked) [5a, 3-phenyl-5-[(4-(2′-oxopyrrolidin-1′-yl)-3,4-dihydroquinolin-1(2H)-yl)-methyl]-4,5 dihydroisoxazole]: the IC50 came to 81.9 ± 0.04 µM on BChE (from bovine serum) (setting [3]) and 77.37 ± 0.01 µM in assay [1] (read-out: IC50 AChE). The SI in assay [1] is given as 1.06.
The corresponding values for `COc1cc(C2=NOC(CN3CCC(N4CCCC4=O)c4cc(Cl)ccc43)C2)cc(OC)c1OC` (centres unmarked) [5p, 5-[(6-chloro-4-(2′-oxopyrrolidin-1′-yl)-3,4-dihydroquinolin-1(2H)-yl)-methyl]-3-(3,4,5-trimethoxyphenyl)-4,5-dihydroisoxazole] are 106 ± 2 µM, 12.28 ± 0.01 µM and 8.61.
Regarding `COc1cc(Cl)c2c(c1)C(N1CCCC1=O)CCN2Cc1cc(-c2ccc(OC)c(OC)c2)no1` (centres unmarked) [6j, 5-((8′-chloro-6′-methoxy-4′-(2′’-oxopyrrolidin-1′’-yl)-3′,4′-dihydroquinolin-1′(2′H)-yl)methyl)-3-(3,4-dimethoxyphenyl)isoxazole], the results for the IC50 (at BChE (from bovine serum) (setting [2]); in assay [1] (read-out: AChE (IC50))) were 149 ± 0.02 µM and 54.69 ± 0.01 µM, respectively. In addition, in assay [1], the SI is 2.72.
In the case of `COc1cc(C2=NOC(CN3CCC(N4CCCC4=O)c4cc(C)ccc43)C2)cc(OC)c1OC` (centres unmarked) [5h, 5-[(6-methyl-4-(2′-oxopyrrolidin-1′-yl)-3,4-dihydroquinolin-1(2H)-yl)-methyl]-3-(3,4,5-trimethoxyphenyl)-4,5-dihydroisoxazole], the IC50 at BChE (from bovine serum) (setting [3]) came out at 63.72 ± 0.001 µM; in assay [1] (read-out: IC50 AChE), 37.41 ± 0.03 µM. Also, the SI in assay [1] is on record as 1.70.
For `COc1ccc(C2=NOC(CN3CCC(N4CCCC4=O)c4cc(Cl)ccc43)C2)cc1` (centres unmarked) [5n, 5-[(6-chloro-4-(2′-oxopyrrolidin-1′-yl)-3,4-dihydroquinolin-1(2H)-yl)-methyl]-3-(4-methoxyphenyl)-4,5-dihydroisoxazole], the IC50 on BChE (from bovine serum) (setting [3]) was found to be 22 ± 0.02 µM. Besides, in assay [1], the SI is given as 5.19 and the “selectivity for inhibiting AChE” value is on record as “significant selectivity”.
For the compound `CCc1ccc2c(c1)C(N1CCCC1=O)CCN2Cc1cc(-c2ccccc2)no1` (centres unmarked) [6q, 5-((6′-ethyl-4′-(2′’-oxopyrrolidin-1′’-yl)-3′,4′-dihydroquinolin-1′(2′H)-yl)methyl)-3-phenylisoxazole], the IC50 on BChE (from bovine serum) (setting [2]) was 108.28 ± 0.01 µM; in assay [1] (read-out: AChE (IC50)), 75.95 ± 0.04 µM. For the same compound, in assay [1], the SI is 1.43.
Taken in the same sequence, the figures for `COc1cc(-c2cc(CN3CCC(N4CCCC4=O)c4ccccc43)on2)cc(OC)c1OC` (centres unmarked) [6c, 3-(3,4,5-trimethoxyphenyl)-5-((4′-(2′’-oxopyrrolidin-1′’-yl)-3′,4′-dihydroquinolin-1′(2′H)-yl)methyl)isoxazole] were 47.96 ± 0.01 µM, 22.07 ± 0.01 µM and 2.17.
In the case of `COc1ccc(C2=NOC(CN3CCC(N4CCCC4=O)c4cc(C)ccc43)C2)cc1` (centres unmarked) [5f, 3-(4-methoxyphenyl)-5-[(6-methyl-4-(2′-oxopyrrolidin-1′-yl)-3,4-dihydroquinolin-1(2H)-yl)-methyl]-4,5-dihydroisoxazole], the IC50 on BChE (from bovine serum) (setting [3]) turned out to be 23.36 ± 0.005 µM; in assay [1] (read-out: IC50 AChE), 16.31 ± 0.01 µM. The SI in assay [1] is on record as 1.43.
Regarding `COc1cc(-c2cc(CN3CCC(N4CCCC4=O)c4cc(C)ccc43)on2)cc(OC)c1OC` (centres unmarked) [6g, 3-(3,4,5-trimethoxyphenyl)-5-((6′-methyl-4′-(2′’-oxopyrrolidin-1′’-yl)-3′,4′-dihydroquinolin-1′(2′H)-yl)methyl)isoxazole], the half-maximal inhibitory concentration (IC50) stood at 78.16 ± 0.01 µM at BChE (from bovine serum) (setting [2]) and 72.94 ± 0.02 µM in assay [1] (read-out: AChE (IC50)). The SI in assay [1] came to 1.07.
In the case of `Cc1ccc2c(c1)C(N1CCCC1=O)CCN2CC1CC(c2ccccc2)=NO1` (centres unmarked) [5e, 5-[(6-methyl-4-(2′-oxopyrrolidin-1′-yl)-3,4-dihydroquinolin-1(2H)-yl)-methyl]-3-phenyl-4,5-dihydroisoxazole], the IC50 on BChE (from bovine serum) (setting [3]) was 31.4 ± 0.01 µM; in assay [1] (read-out: IC50 AChE) it was 189.1 ± 0.01 µM. The compound further came in with an SI in assay [1] of 0.17.
Consider `O=C1CCCN1C1CCN(Cc2cc(-c3ccccc3)no2)c2ccc(F)cc21` (centres unmarked) [6u, 5-((6′-fluor-4′-(2′’-oxopyrrolidin-1′’-yl)-3′,4′-dihydroquinolin-1′(2′H)-yl)methyl)-3-phenylisoxazole], for which the IC50 amounted to 17.74 ± 0.01 µM at BChE (from bovine serum) (setting [2]) and 116.63 ± 0.01 µM in assay [1] (read-out: AChE (IC50)). The “selectivity against BChE” value on BChE (from bovine serum) is given as “more selective”. The compound further showed an SI in assay [1] of 0.15.
For the compound `O=C1CCCN1C1CCN(Cc2cc(-c3ccccc3)no2)c2ccccc21` (centres unmarked) [6a, 3-phenyl-5-((4′-(2′’-oxopyrrolidin-1′’-yl)-3′,4′-dihydroquinolin-1′(2′H)-yl)methyl)isoxazole], the IC50 on BChE (from bovine serum) (setting [2]) is < 7.18 µM and 4.36 µM; in assay [1] (read-out: AChE (IC50)) it was 104.74 ± 0.01 µM. Moreover, the “selectivity against BChE” value on BChE (from bovine serum) is on record as “more selective”. The compound also gave an SI in assay [1] of 0.04.
For `COc1ccc(-c2cc(CN3CCC(N4CCCC4=O)c4cc(Br)ccc43)on2)cc1OC` (centres unmarked) [6aa, 3-(3,4-dimethoxyphenyl)-5-((6′-bromo-4′-(2′’-oxopyrrolidin-1′’-yl)-3′,4′-dihydroquinolin-1′(2′H)-yl)methyl)isoxazole], the IC50 was < 7.18 µM and 3.97 µM at BChE (from bovine serum) (setting [2]); 96.1 ± 0.01 µM in assay [1] (read-out: AChE (IC50)). Further, on BChE (from bovine serum), the “selectivity against BChE” value is “more selective”. In addition, the “times more potent against BChE than for the AChE enzyme” value at BChE (from bovine serum) (selectivity for BChE) is reported as “about 24 times”. The compound further gave an SI in assay [1] of 0.04.
